# Laboratory results: PubChem BioAssay (NCI)
#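 Dose response: 5 concentrations. Exposure: 48 h. Format: 96-well plates. Endpoint: linear interpolation; highest concentration if not reached. Definition used: TGI = concentration required for complete inhibition of growth.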
# Key:
# Test in all cases: growth of human tumour cells (NCI), 48 h
# DU-145 prostate = test system: DU-145 prostate
# MDA-N = test system: MDA-N
# KM12 colon = test system: KM12 colon
# U251 CNS = test system: U251 CNS
# LOX IMVI melanoma = test system: LOX IMVI melanoma
# SNB-75 CNS = test system: SNB-75 CNS
# MALME-3M melanoma = test system: MALME-3M melanoma
# HCT-15 colon = test system: HCT-15 colon
# SN12C renal = test system: SN12C renal
# UACC-62 melanoma = test system: UACC-62 melanoma
# OVCAR-8 ovarian = test system: OVCAR-8 ovarian
# MCF7 breast = test system: MCF7 breast
# HCC-2998 colon = test system: HCC-2998 colon
# MDA-MB-231 breast = test system: MDA-MB-231 breast
# OVCAR-5 ovarian = test system: OVCAR-5 ovarian
# HT29 colon = test system: HT29 colon
# SK-MEL-2 melanoma = test system: SK-MEL-2 melanoma
# NCI-H460 lung = test system: NCI-H460 lung
# UACC-257 melanoma = test system: UACC-257 melanoma
# OVCAR-4 ovarian = test system: OVCAR-4 ovarian
# BT-549 breast = test system: BT-549 breast
# SK-MEL-28 melanoma = test system: SK-MEL-28 melanoma
# CCRF-CEM leukemia = test system: CCRF-CEM leukemia
# NCI-H522 lung = test system: NCI-H522 lung
# SF-539 CNS = test system: SF-539 CNS
# OVCAR-3 ovarian = test system: OVCAR-3 ovarian
# SK-MEL-5 melanoma = test system: SK-MEL-5 melanoma
# SW-620 colon = test system: SW-620 colon
# MOLT-4 leukemia = test system: MOLT-4 leukemia
# HCT-116 colon = test system: HCT-116 colon
# A498 renal = test system: A498 renal
# SF-295 CNS = test system: SF-295 CNS
# K-562 leukemia = test system: K-562 leukemia
# SNB-19 CNS = test system: SNB-19 CNS
# ACHN renal = test system: ACHN renal
# MDA-MB-435 = test system: MDA-MB-435
# A549 NSCLC = test system: A549 NSCLC
# UO-31 renal = test system: UO-31 renal
# IGROV1 ovarian = test system: IGROV1 ovarian
# PC-3 prostate = test system: PC-3 prostate
# SK-OV-3 ovarian = test system: SK-OV-3 ovarian
# TK-10 renal = test system: TK-10 renal
# HS 578T breast = test system: HS 578T breast
# M14 melanoma = test system: M14 melanoma
# T-47D breast = test system: T-47D breast
# 786-0 renal = test system: 786-0 renal
# SR leukemia = test system: SR leukemia
# HL-60(TB) leukemia = test system: HL-60(TB) leukemia
# EKVX NSCLC = test system: EKVX NSCLC
# SF-268 CNS = test system: SF-268 CNS
# CAKI-1 renal = test system: CAKI-1 renal
# HOP-62 NSCLC = test system: HOP-62 NSCLC
# RPMI-8226 leukemia = test system: RPMI-8226 leukemia
# HOP-92 NSCLC = test system: HOP-92 NSCLC
# RXF 393 renal = test system: RXF 393 renal
# NCI-H23 lung = test system: NCI-H23 lung
# NCI/ADR-RES ovarian = test system: NCI/ADR-RES ovarian
# COLO 205 colon = test system: COLO 205 colon
# NCI-H226 lung = test system: NCI-H226 lung
structure (smiles),measurement,setting,value
C(=C\c1cccc(/C=C/c2ccccn2)n1)/c1ccccn1,TGI,DU-145 prostate,> 100 µM
same,TGI,MDA-N,> 100 µM
same,TGI,KM12 colon,> 100 µM
same,TGI,U251 CNS,> 100 µM
same,TGI,LOX IMVI melanoma,> 100 µM
same,TGI,SNB-75 CNS,> 100 µM
same,TGI,MALME-3M melanoma,39.9 µM
same,TGI,HCT-15 colon,> 100 µM
same,TGI,SN12C renal,> 100 µM
same,TGI,UACC-62 melanoma,83.1 µM
same,TGI,OVCAR-8 ovarian,> 100 µM
same,TGI,MCF7 breast,> 100 µM
same,TGI,HCC-2998 colon,> 100 µM
same,TGI,MDA-MB-231 breast,> 100 µM
same,TGI,OVCAR-5 ovarian,> 100 µM
same,TGI,HT29 colon,> 100 µM
same,TGI,SK-MEL-2 melanoma,> 100 µM
same,TGI,NCI-H460 lung,> 100 µM
same,TGI,UACC-257 melanoma,> 100 µM
same,TGI,OVCAR-4 ovarian,> 100 µM
same,TGI,BT-549 breast,40.9 µM
same,TGI,SK-MEL-28 melanoma,> 100 µM
same,TGI,CCRF-CEM leukemia,> 100 µM
same,TGI,NCI-H522 lung,28.8 µM
same,TGI,SF-539 CNS,> 100 µM
same,TGI,OVCAR-3 ovarian,> 100 µM
same,TGI,SK-MEL-5 melanoma,> 100 µM
same,TGI,SW-620 colon,> 100 µM
same,TGI,MOLT-4 leukemia,> 100 µM
same,TGI,HCT-116 colon,> 100 µM
same,TGI,A498 renal,71.7 µM
same,TGI,SF-295 CNS,> 100 µM
same,TGI,K-562 leukemia,> 100 µM
same,TGI,SNB-19 CNS,> 100 µM
same,TGI,ACHN renal,> 100 µM
same,TGI,MDA-MB-435,> 100 µM
same,TGI,A549 NSCLC,> 100 µM
same,TGI,UO-31 renal,> 100 µM
same,TGI,IGROV1 ovarian,> 100 µM
same,TGI,PC-3 prostate,> 100 µM
same,TGI,SK-OV-3 ovarian,> 100 µM
same,TGI,TK-10 renal,> 100 µM
same,TGI,HS 578T breast,44.3 µM
same,TGI,M14 melanoma,> 100 µM
same,TGI,T-47D breast,> 100 µM
same,TGI,786-0 renal,> 100 µM
same,TGI,SR leukemia,> 100 µM
same,TGI,HL-60(TB) leukemia,> 100 µM
same,TGI,EKVX NSCLC,> 100 µM
same,TGI,SF-268 CNS,37.2 µM
same,TGI,CAKI-1 renal,> 100 µM
same,TGI,HOP-62 NSCLC,> 100 µM
same,TGI,RPMI-8226 leukemia,> 100 µM
same,TGI,HOP-92 NSCLC,> 100 µM
same,TGI,RXF 393 renal,> 100 µM
same,TGI,NCI-H23 lung,> 100 µM
same,TGI,NCI/ADR-RES ovarian,> 100 µM
same,TGI,COLO 205 colon,> 100 µM
same,TGI,NCI-H226 lung,> 100 µM
O=C1NC(=O)/C(=C/c2ccc(S(=O)(=O)N/N=C/c3ccc(Cl)cc3)cc2)N1,TGI,DU-145 prostate,> 100 µM
same,TGI,MDA-N,> 100 µM
same,TGI,KM12 colon,> 100 µM
same,TGI,U251 CNS,> 100 µM
same,TGI,LOX IMVI melanoma,> 100 µM
same,TGI,SNB-75 CNS,> 100 µM
same,TGI,MALME-3M melanoma,> 100 µM
same,TGI,HCT-15 colon,> 100 µM
same,TGI,SN12C renal,> 100 µM
same,TGI,UACC-62 melanoma,> 100 µM
same,TGI,OVCAR-8 ovarian,> 100 µM
same,TGI,MCF7 breast,> 100 µM
same,TGI,HCC-2998 colon,> 100 µM
same,TGI,MDA-MB-231 breast,> 100 µM
same,TGI,OVCAR-5 ovarian,> 100 µM
same,TGI,HT29 colon,> 100 µM
same,TGI,SK-MEL-2 melanoma,> 100 µM
same,TGI,NCI-H460 lung,> 100 µM
same,TGI,UACC-257 melanoma,> 100 µM
same,TGI,OVCAR-4 ovarian,> 100 µM
same,TGI,BT-549 breast,> 100 µM
same,TGI,SK-MEL-28 melanoma,> 100 µM
same,TGI,CCRF-CEM leukemia,> 100 µM
same,TGI,OVCAR-3 ovarian,> 100 µM
same,TGI,SK-MEL-5 melanoma,> 100 µM
same,TGI,SW-620 colon,> 100 µM
same,TGI,MOLT-4 leukemia,> 100 µM
same,TGI,HCT-116 colon,> 100 µM
same,TGI,A498 renal,> 100 µM
same,TGI,SF-295 CNS,> 100 µM
same,TGI,K-562 leukemia,> 100 µM
same,TGI,SNB-19 CNS,> 100 µM
same,TGI,ACHN renal,> 100 µM
same,TGI,MDA-MB-435,> 100 µM
same,TGI,A549 NSCLC,> 100 µM
same,TGI,UO-31 renal,> 100 µM
same,TGI,IGROV1 ovarian,> 100 µM
same,TGI,PC-3 prostate,> 100 µM
same,TGI,SK-OV-3 ovarian,> 100 µM
same,TGI,TK-10 renal,> 100 µM
same,TGI,HS 578T breast,> 100 µM
same,TGI,M14 melanoma,> 100 µM
same,TGI,T-47D breast,> 100 µM
same,TGI,786-0 renal,> 100 µM
same,TGI,SR leukemia,> 100 µM
same,TGI,HL-60(TB) leukemia,> 100 µM
same,TGI,EKVX NSCLC,> 100 µM
same,TGI,SF-268 CNS,> 100 µM
same,TGI,CAKI-1 renal,> 100 µM
same,TGI,HOP-62 NSCLC,> 100 µM
same,TGI,RPMI-8226 leukemia,> 100 µM
same,TGI,HOP-92 NSCLC,> 100 µM
same,TGI,RXF 393 renal,> 100 µM
same,TGI,NCI-H23 lung,> 100 µM
same,TGI,NCI/ADR-RES ovarian,> 100 µM
same,TGI,COLO 205 colon,> 100 µM
same,TGI,NCI-H226 lung,> 100 µM
